# Source: US20070134261A1, “Effectors of innate immunity” (priority 2001, published 2007)
# Where two headings read alike, the source gives them in different places. No end group written: not given here.
# Legend:
# HBE cells = test: WST-1 assay (cell viability); format: cell-based, human
# Procedure: (§1) The potential toxicity of the peptides was measured in two ways. First, the Cytotoxicity Detection Kit (Roche) (Lactate dehydrogenase-LDH) Assay was used. It is a colorimetric assay for the quantification of cell death and cell lysis, based on the measurement of LDH activity released from the cytosol of damaged cells into the supernatant. LDH is a stable cytoplasmic enzyme present in all cells and it is released into the cell culture supernatant upon damage of the plasma membrane. An increase in the amount of dead or plasma membrane-damaged cells results in an increase of the LDH enzyme activity in the culture supernatant as measured with an ELISA plate reader, OD490 nm (the amount of color formed in the assay is proportional to the number of lysed cells). In this assay, human bronchial epithelial cells (I6HBEo14, HBE) cells were incubated with 100 μg of peptide for 24 hours, the supernatant removed and tested for LDH. The other assay used to measure toxicity of the cationic peptides was the WST-1 assay (Roche). This assay is a colorimetric assay for the quantification of cell proliferation and cell viability, based on the cleavage of the tetrazolium salt WST-1 by mitochondrial dehydrogenases in viable cells (a non-radioactive alternative to the [^3H]-thymidine incorporation assay). In this assay, HBE cells were incubated with 100 μg of peptide for 24 hours, and then 10 μl/well Cell Proliferation Reagent WST-1 was added. The cells are incubated with the reagent and the plate is then measured with an ELISA plate reader, OD490 nm.
# [1] = system: human bronchial epithelial cells (HBE); test: LDH release assay (Cytotoxicity Detection Kit); format: cell-based; settings: 24 hours; for LDH Release (OD490 nm): 100 μg/ml, no peptide control 1.0 ± 0.05
# Procedure: as §1
# [2] = format: cell-based
# A549 epithelial cells = test: Human Operon arrays (PRHU04-S1) of A549 cells treated with peptide alone (Tables 31-37, 53); settings: peptide 50 μg/ml, 4 h, A549 cells
# [3] = Citobacter rhodensis, overnight, 96-well plate
# [4] = Enterohaemorrhagic E. coli, overnight, 96-well plate
# [5] = Escherichia coli, overnight, 96-well plate
# [6] = Pseudomonas aeruginosa, overnight, 96-well plate
# [7] = Salmonella enteritidis ssp. typhimurium, overnight, 96-well plate
substance,measurement,setting,value
KTKKFAKMLMMALKKVVSTAKPLAILS [SEQ ID NO: 42],OD490 nm (WST-1 cell viability),HBE cells,0.39 ± 0.08 OD490 nm
same,LDH Release (OD490 nm),[1],3.4 ± 0.2 OD490 nm
same,toxicity / membrane damage,"[1]; as measured by both assays (LDH, WST-1), HBE cells",did induce membrane damage
same,"MIC, C. rhod.",[2]; 24 h,2 µg/mL
same,"MIC, E. coli",[2]; 24 h,1.5 µg/mL
same,"MIC, EHEC",[2]; 24 h,1 µg/mL
same,"MIC, P. aerug.",[2]; 24 h,4 µg/mL
same,"MIC, S. aureus",[2]; 24 h,64 µg/mL
same,"MIC, S. typhim.",[2]; 24 h,2 µg/mL
KWKSFLRTFKSPVRTVFHTALKPISS [SEQ ID NO: 53],OD490 nm (WST-1 cell viability),HBE cells,1.51 ± 0.37 OD490 nm
same,LDH Release (OD490 nm),[1],103 ± 0.06 OD490 nm
same,"MIC, C. rhod.",[2]; [3],16 µg/mL
same,"MIC, EHEC",[2]; [4],8 µg/mL
same,"MIC, E. coli",[2]; [5],4 µg/mL
same,"MIC, P. aerug.",[2]; [6],8 µg/mL
same,"MIC, S. typhim.",[2]; [7],8 µg/mL
KWKSYAHTIMSPVRLIFHTALKPISS [SEQ ID NO: 48],OD490 nm (WST-1 cell viability),HBE cells,0.93 ± 0.08 OD490 nm
same,LDH Release (OD490 nm),[1],0.95 ± 0.05 OD490 nm
same,"MIC, C. rhod.",[2]; [3],1 µg/mL
same,"MIC, EHEC",[2]; [4],2 µg/mL
same,"MIC, E. coli",[2]; [5],16 µg/mL
same,"MIC, P. aerug.",[2]; [6],128 µg/mL
same,"MIC, S. typhim.",[2]; [7],16 µg/mL
LSRIAPAIPWAKL [SEQ ID NO: 10],OD490 nm (WST-1 cell viability),HBE cells,1.22 ± 0.05 OD490 nm
same,LDH Release (OD490 nm),[1],1.04 ± 0.04 OD490 nm
same,"MIC, EHEC",[2]; 24 h,64 µg/mL
NLPDLKKPRVPATS [ID 17],"ID#:ctrl intensity ratio, M14565 cytochrome P450",A549 epithelial cells,6.3
NLPDLKKPRVPATS [SEQ ID NO: 17],OD490 nm (WST-1 cell viability),HBE cells,1.60 ± 0.46 OD490 nm
same,LDH Release (OD490 nm),[1],0.94 ± 0.04 OD490 nm
Polymyxin,"MIC, C. rhod.",[2]; [3],0.25 µg/mL
same,"MIC, EHEC",[2]; [4],0.5 µg/mL
same,"MIC, E. coli",[2]; [5],0.25 µg/mL
same,"MIC, P. aerug.",[2]; [6],0.25 µg/mL
same,"MIC, S. typhim.",[2]; [7],0.5 µg/mL
same,"MIC, S. aureus","[2]; Staphylococcus aureus, overnight, 96-well plate",16 µg/mL
RAAFKWAWAWWRRK [ID 23],"ID#:ctrl intensity ratio, X65962 cytochrome P-450",A549 epithelial cells,19.8
RAPYWPWAWARPRK [ID 21],"ID#:ctrl intensity ratio, X65962 cytochrome P-450",A549 epithelial cells,5.7
"RLARIVVIRVAR-NH2 [SEQ ID NO: 3, reference compound]",OD490 nm (WST-1 cell viability),HBE cells,1.35 ± 0.12 OD490 nm
same,LDH Release (OD490 nm),[1],1.05 ± 0.04 OD490 nm
RRARIVPAIPVARR [SEQ ID NO: 9],OD490 nm (WST-1 cell viability),HBE cells,1.69 ± 0.29 OD490 nm
same,LDH Release (OD490 nm),[1],1.6 ± 0.03 OD490 nm
RRAWWKAWWARRK [ID 20],"ID#:ctrl intensity ratio, X65962 cytochrome P-450",A549 epithelial cells,25.3
RRRWKWAWPRRK [ID 24],"ID#:ctrl intensity ratio, X65962 cytochrome P-450",A549 epithelial cells,12.0
SELPGLKHPCVPGS [SEQ ID NO: 13],OD490 nm (WST-1 cell viability),HBE cells,1.23 ± 0.11 OD490 nm
same,LDH Release (OD490 nm),[1],0.93 ± 0.06 OD490 nm
SLPIKHDRLPATS [ID 15],"ID#:ctrl intensity ratio, M14565 cytochrome P450",A549 epithelial cells,3.6
TTLGPVKRDSIPGE [ID 14],"ID#:ctrl intensity ratio, M14565 cytochrome P450",A549 epithelial cells,5.0
TTLGPVKRDSIPGE [SEQ ID NO: 14],OD490 nm (WST-1 cell viability),HBE cells,1.25 ± 0.02 OD490 nm
same,LDH Release (OD490 nm),[1],0.99 ± 0.05 OD490 nm
Triton X-100 [reference compound],OD490 nm (WST-1 cell viability),HBE cells,0.26 ± 0.01 OD490 nm
same,LDH Release (OD490 nm),[1],4.6 ± 0.1 OD490 nm
